From paper PMC6911004, “Fragment-based screening identifies molecules targeting the substrate-binding ankyrin repeat domains of tankyrase” (Scientific Reports, 2019)

Legend:
Assay type in all cases: binding
TNKS2 ARC4 (488–649) = target: T1, TNKS2 ARC4 (488–649) (Homo sapiens, UniProt Q9H2K2); assay: Isothermal titration calorimetry (ITC); conditions: global analysis n = 5
T1 construct: The cell was filled with TNKS2 ARC4 (488–649); His6-GST (cleaved yes); made in house; host or cells: E. coli BL21-CodonPlus (DE3)-RIL
T1 sequence (Q9H2K2 488-649): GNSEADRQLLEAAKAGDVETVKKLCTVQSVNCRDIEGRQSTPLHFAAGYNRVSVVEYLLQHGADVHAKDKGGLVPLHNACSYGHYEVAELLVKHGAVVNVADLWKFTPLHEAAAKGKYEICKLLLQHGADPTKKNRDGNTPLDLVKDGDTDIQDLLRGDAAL
Protocol: We next used isothermal titration calorimetry (ITC) to confirm the compound 9:TNKS2 ARC4 binding affinity, titrating the fragment (5 mM, 1% DMSO) into TNKS2 ARC4 (200 μM, 1% DMSO).
An ITC200 instrument (MicroCal) was used, fitted with a twisted syringe needle, stirring at 750 rpm. All solutions were degassed using a ThermoVac before use. The reference cell was filled with buffer (200 μL, 25 mM HEPES-NaOH pH 7.5, 100 mM NaCl, 1 mM TCEP, 1% v/v DMSO). The cell was filled with TNKS2 ARC4 (488–649) (200 μL, 200 μM in identical buffer as above). 20 injections (1 × 0.5 μL, then 19 × 2 μL) of compound 9 (5 mM, 1% v/v DMSO in buffer) were performed, with 180 s between injections. Blank correction was performed by titrating compound into buffer alone (25 mM HEPES-NaOH pH 7.5, 100 mM NaCl, 1 mM TCEP, 1% v/v DMSO) using the same injection protocol as above. The first injections from each run were discarded from data analysis. Data were analysed using Origin software with a one-site binding model. Titrations were repeated n = 5. Global analysis was performed using SEDPHAT software.

TNKS ARC4 (646–807) = target: T2, TNKS ARC4 (646–807) (Homo sapiens, UniProt O95271); assay: WaterLOGSY NMR assay
T2 construct: TNKS ARC4 (646–807); His6-GST; made in house; host or cells: E. coli
T2 sequence (O95271 646-807): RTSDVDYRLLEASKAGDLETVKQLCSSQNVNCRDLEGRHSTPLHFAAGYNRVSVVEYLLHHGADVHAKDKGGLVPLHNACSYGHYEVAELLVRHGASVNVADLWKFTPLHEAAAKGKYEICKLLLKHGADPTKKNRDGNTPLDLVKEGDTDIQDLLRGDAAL
Protocol: (§1) Fragments were dispensed in duplicate into a 384-well plate (250 nL, 100 mM stock in DMSO). Wells were backfilled with DMSO (2.25 μL). Tankyrase ARC protein (47.5 μL in 25 mM HEPES-NaOH pH7.5, 100 mM NaCl, 2 mM TCEP, 10% D2O; 20 μM final protein concentration in the assay) was added to the samples containing protein; buffer only (47.5 μL) was added to the compound-only samples. Solutions were transferred to 1.7 mm NMR tubes using a Gilson liquid handling system. ^1H NMR spectra were recorded, with the DMSO signal dampened. The bulk water signal at 4.7 ppm was selectively inverted. Data were processed using Bruker Topspin 3.14[66].

TNKS ARC5 (799–958) = target: T3, TNKS ARC5 (799–958) (Homo sapiens, UniProt O95271); assay: WaterLOGSY NMR assay
T3 construct: TNKS ARC5 (799–958); His6-GST; made in house; host or cells: E. coli
T3 sequence (O95271 799-958): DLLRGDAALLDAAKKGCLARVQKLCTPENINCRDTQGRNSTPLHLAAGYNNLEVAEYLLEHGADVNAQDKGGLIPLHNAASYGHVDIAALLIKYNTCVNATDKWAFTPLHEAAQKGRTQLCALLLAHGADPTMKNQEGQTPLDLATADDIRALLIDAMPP
Protocol: as §1

TNKS2 ARC4 = target: T4, TNKS2 ARC4 (Homo sapiens, UniProt Q9H2K2); assay: Fluorescence polarisation (FP) competition assay with Cy5-labelled TBM peptide probe; conditions: 5 nM Cy5-RSPPDGQS probe, 5 µM TNKS2 ARC4
T4 construct: The cell was filled with TNKS2 ARC4 (488–649); His6-GST; made in house; host or cells: E. coli
T4 sequence (Q9H2K2 488-649): T1 sequence (Q9H2K2 488-649)
From the text: Given the anticipated impairment of cell permeability by the N-terminal TBM arginine, we investigated whether the guanidine group could be substituted. To prioritise synthesis efforts, we followed an in-silico docking approach, exploring the importance of the positive charge and hydrogen bonding interactions, linker lengths/flexibility and side chain geometry (see Supplementary Materials and Methods for details). From commercially available side chain alternatives, we identified five potential candidates for R replacements: 1H-imidazole-5-pentanoic acid, 1H-imidazole-1-pentanoic acid, 7-aminoheptanoic acid, D-arginine and L-citrulline (Supplementary Fig. 1). We next synthesised 3BP2 TBM octapeptides, incorporating the five arginine substituents at position 1, followed by fluorescence polarisation (FP) assays to assess competition of the peptides with a Cy5-labelled TBM peptide probe (Supplementary Fig. 1). We used a 16-mer TBM peptide (LPHLQRSPPDGQSFRSW, W introduced to measure A280) derived from the model substrate 3BP2, a signalling adapter protein[4], as a positive control for a competitor, and a corresponding non-binding TBM peptide bearing a glycine-to-arginine substitution at position 6[4] as a negative control. […]
Fluorescence polarisation assay
Unlabelled arginine substituent peptides were titrated up to 1 mM in the presence of 5 nM of a labelled peptide probe (Cy5-RSPPDGQS, JPT Peptide Technologies) and 5 µM TNKS2 ARC4. 3BP2 16-mer peptide was used as a positive control, and the same peptide with the glycine at position 6 mutated to arginine (G6R) was used as a negative control. Plus F ProxiPlates (PerkinElmer) were used with a 2103 Envision Multilabel plate reader (PerkinElmer), fitted with 620 nm (excitation) and 688 nm (emission) filters. Filter bandwidths were 10 nm. A Nanodrop 2000 was used for measuring protein and probe concentrations by UV absorption. TNKS2 ARC4 protein was thawed from -80 ° C, and centrifuged at 13,000 […]
Two independent experiments were performed in technical duplicate. A 2´ stock solution containing TNKS2 ARC4 protein (10 µM) and fluorescently tagged probe (10 nM) in assay buffer (25 mM HEPES-NaOH pH 7.5, 100 mM NaCl, 1 mM TCEP, 0.01% CHAPS) was prepared. A 2-fold dilution series of untagged peptide in assay buffer was made (0 – 2 mM).
Protein and peptide stock solutions were mixed 1:1. Blank samples contained assay buffer only. The plate was sealed, centrifuged for 1 min at 1000 ´ g, and then incubated in the dark for 30 min before reading. Readings were taken with 50 flashes per well, and measured in millipolarisation (mP) units. Data were exported to Microsoft Excel, and analysed in GraphPad Prism 6.0. The means of technical duplicate values were calculated for both experiments, and FP values were plotted against unlabelled peptide concentration. Curves were normalised using the overall mean maximum and minimum FP values of the control 3BP2 TBM peptide. Curves were fitted using a non-linear regression, log(inhibitor) vs. response – variable slope (four parameters) model.
Multiple sequence alignments and amino acid identity mapping
Sequences of tankyrase ARCs were aligned using ClustalX (version 2.0) 4. […]
Supplementary Figure 1. Binding of TBM peptides containing arginine substituents to TNKS2 ARC4, measured in a fluorescence polarisation (FP) competition assay. Data points are means of technical duplicates from two independent experiments. […]

Row | Molecule | Kd (TNKS2 ARC4 (488–649); compound 5 mM into ARC4 200 μM, 1% DMSO) [µM] | ITC stoichiometry (N) compound:TNKS2 ARC4 (TNKS2 ARC4 (488–649)) | waterLOGSY (TNKS ARC4 (646–807)) | waterLOGSY (TNKS ARC5 (799–958)) | IC50 (TNKS2 ARC4) [µM]
1 | O=C(NCc1ccco1)c1ccc2nccnc2c1 [compound 9] | 1200 | 1.1 | negative NOE signal | negative NOE signal | –
2 | LPHLQRSPPDGQSFRSW [3BP2 16-mer peptide, 16-mer TBM peptide derived from 3BP2, W added for A280, N-terminus acetylated, C-terminus amide-capped; positive control, reference compound] | – | – | – | – | 22
